Test results published in patent US12286429B2, “5-oxo-1,2,3,5,8,8a-hexahydroindolizine-3-carboxamide derivatives useful as a factor XIa inhibitors” (Janssen Pharmaceutica NV, priority 2021, dated 2025).

Experiments:
[1] = molecular target: Factor XIa (Homo sapiens, UniProt P03951); test: Factor XIa inhibition assay utilizing a fluorophore-quencher pair peptide substrate (FLINT); type: biochemical; conditions: 11-point, 3-fold serial dilution, top 100 nM; 30 min preincubation; 15 μM 5Fam-KLTRAETV-K5Tamra substrate; kinetic reads over 30 min; read-out: FXIa Inhibition IC50
Text: Biological Example 1: Factor XIa Inhibition Assay Utilizing a Fluorophore-Quencher Pair Peptide Substrate
A fluorescence intensity (FLINT) based assay was used to monitor inhibition of Factor XIa. The peptide substrate, 5Fam-KLTRAETV-K5Tamra (purchased from New England Peptide) was chosen based on the FXI sequence. Conversion of zymogen FXI to its activated form, FXIa, occurs by proteolytic cleavage by […] at two sites, Arg146 and Arg180. The custom peptide used in this assay was based on the Arg146 cleavage site of FXI. The peptide substrate was designed with a fluorophore-quencher pair, where the fluorescence is quenched until FXIa cleaves the 8-mer peptide after the Arg residue.
The Factor XIa FLINT assay was used with the following 5Fam-KLTRAETV-K5Tamra assay buffer: 50 mM Tris, pH 7.5, 100 mM NaCl, 5 mM CaCl2, 0.1 mg/mL BSA, 0.03% CHAPS. Assay buffer was prepared by mixing all ingredients fresh. 5Fam-KLTRAETV-K5Tamra peptide substrate was first prepared at 10 mM in 100% DMSO, then diluted to 3 mM in 100% DMSO. Assay buffer was then added directly to the 3 mM stock of substrate to prepare the 30 μM 2× working concentration (15 μM final concentration). The 2× Factor XIa stock solution was prepared by diluting 6.562 μM stock in 1× assay buffer for a […].
Test compound(s) were run in an 11-point, 3-fold serial dilution with a final top compound concentration of 100 nM. Final DMSO in assay was 2%. FXIa was preincubated with compound for 30-minutes and then substrate was added to initiate the reaction. The assay was run with kinetic (KIN) reads at 5 min intervals over 30 minutes. […] More specifically, the assay was run as follows: • 100 nL of 0.01 mM test compound was dispensed into black 384-well non-binding Greiner BioOne 784900 plate for 0.1 μM final concentration, • 5 μL of 1× assay buffer was dispensed to column 24 (low control) and 5 μL 2× Factor XIa solution was dispensed to columns 1-23 (column 23 high control); • the plate was centrifuged with a “cover” plate at 500 rpm for 1 min • the plate was pre-incubated for 30 minutes at room temperature with plate covered; • 5 μL of 2×5Fam-KLTRAETV-K5Tamra peptide substrate was dispensed into the entire plate, columns 1-24; • the plate was centrifuged with a “cover” plate at 500 rpm for 1 min; • the plate was read monitoring fluorescence intensity on the BMG PHERAStar at room temperature, using fluorescence module 485 nm/520 nm.
(§1) Percent inhibition (IC50) curves were generated per compound tested, and data was analyzed using a 4-parameter logistic fit using GeneData Screener. The relative fluorescence unit (RFU) values were normalized to percent inhibition using the following equation: % inhibition=((HC−LC)−(compound−LC)/(HC−LC))*100
where LC—low control=mean signal of no Factor XIa or 100% inhibition of Factor XIa; HC—high control=mean signal of Factor XIa+5Fam-KLTRAETV-K5Tamra peptide substrate with DMSO only.
(§2) An 11-point dose response curve for the test compound(s) was generated using GENDATA to determine IC50 value based on the following equation: Y=Bottom+(Top−Bottom)/(1+10^((log IC50−X)*HillSlope))
(§3) where Y is the % inhibition in the presence of X inhibitor concentration, Top=high control=mean signal of Factor XIa+5Fam-KLTRAETV-K5Tamra peptide substrate with DMSO only; Bottom=low control—mean signal of no Factor XIa or 100% inhibition of Factor XIa; HillSlope—Hill coefficient; and IC50=concentration of compound with 50% inhibition in relation to top/high control.

[2] = molecular target: human plasma kallikrein (Homo sapiens, UniProt P03952); test: Kallikrein inhibition assay utilizing a quenched AMC peptide substrate (FLINT); type: biochemical; conditions: 11-point, 3-fold serial dilution, top 1 μM; 30 min preincubation; 2 nM kallikrein; 50 μM Z-Gly-Pro-Arg-AMC; kinetic reads over 30 min
Description: Biological Example 2: Kallikrein Inhibition Assay Utilizing a Quenched AMC Peptide Substrate
A fluorescence intensity (FLINT) based assay was used to monitor inhibition of human plasma kallikrein. The peptide substrate, Z-Gly-Pro-Arg-AMC (Purchased from Bachem; Catalog #I-1150) was chosen based on its relatively low KM for kallikrein which enables running the assay at lower substrate concentrations to control background fluorescence. The kinetic parameters for this substrate were determined by fitting titration data to the Michaelis-Menten equation yielding a KM=40 μM, kcat=0.76 s^−1, and kcat/KM=18932 M^−1s^−1.
The Kallikrein FLINT assay was used with the following Z-Gly-Pro-Arg-AMC assay buffer: 50 mM Tris, pH 7.5, 100 mM NaCl, 5 mM CaCl2, 0.1 mg/mL BSA, 0.03% CHAPS. Assay buffer was prepared by mixing all ingredients fresh. 2× Z-Gly-Pro-Arg-AMC peptide substrate was prepared by diluting 10 mM stock into 1× assay buffer for a 100 μM working concentration (50 μM final concentration). The 2× kallikrein stock solution was prepared by diluting 14.76 μM stock in 1× assay buffer for a 4 nM working stock solution (2 nM final concentration).
Test compound(s) were run in an 11-point, 3-fold serial dilution with a final top compound concentration of 1 μM. Final DMSO in assay was 2%. Plasma kallikrein was pre-incubated for 30-minute with compound and then 50 μM substrate was added to initiate the reaction. The assay was run with kinetic (KIN) reads at 5 min intervals over 30 minutes. The time course was linear using 2 nM kallikrein greater than 30 minutes. More specifically, the assay was run as follows: • 100 nL of 0.1 mM test compound was dispensed into black 384-well non-binding Greiner BioOne 784900 plate for 1 μM final concentration; • 5 μL of 1× assay buffer was dispensed to columns 24 (low control) and 5 μL 2× human kallikrein enzyme solution was dispensed to columns 1-23 (column 23 high control); • the plate was centrifuged with a “cover” plate at 500 rpm for 1 min • the plate was pre-incubated for 30 minutes at room temperature with plate covered; • 5 μL of 2× Z-Gly-Pro-Arg-AMC peptide substrate was dispensed into the entire plate, columns 1-24; • the plate was centrifuged with a “cover” plate at 500 rpm for 1 min; • the plate was read monitoring fluorescence intensity on the BMG PHERAStar at room temperature, using fluorescence module 340 nm/440 nm.
as §1
where LC—low control=mean signal of […] 100% inhibition of human kallikrein enzyme; HC—high control=mean signal of […]+Z-Gly-Pro-Arg-AMC peptide substrate with DMSO only.
as §2
as §3, with “human kallikrein enzyme+Z-Gly-Pro-Arg-AMC” for “Factor XIa+5Fam-KLTRAETV-K5Tamra”, “human kallikrein enzyme” for “Factor XIa”, “human kallikrein enzyme;” for “Factor XIa;”

Factor XIa, sequence (P03951 388-625 limits assumed): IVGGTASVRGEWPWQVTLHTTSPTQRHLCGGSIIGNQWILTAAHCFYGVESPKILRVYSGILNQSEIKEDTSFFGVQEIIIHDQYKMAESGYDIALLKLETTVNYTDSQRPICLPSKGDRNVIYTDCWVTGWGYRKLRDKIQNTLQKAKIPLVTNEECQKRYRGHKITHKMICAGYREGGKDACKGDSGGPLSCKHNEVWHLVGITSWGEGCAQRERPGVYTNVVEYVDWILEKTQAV
Factor XIa, sequence (P03951 19-387 partner limits assumed): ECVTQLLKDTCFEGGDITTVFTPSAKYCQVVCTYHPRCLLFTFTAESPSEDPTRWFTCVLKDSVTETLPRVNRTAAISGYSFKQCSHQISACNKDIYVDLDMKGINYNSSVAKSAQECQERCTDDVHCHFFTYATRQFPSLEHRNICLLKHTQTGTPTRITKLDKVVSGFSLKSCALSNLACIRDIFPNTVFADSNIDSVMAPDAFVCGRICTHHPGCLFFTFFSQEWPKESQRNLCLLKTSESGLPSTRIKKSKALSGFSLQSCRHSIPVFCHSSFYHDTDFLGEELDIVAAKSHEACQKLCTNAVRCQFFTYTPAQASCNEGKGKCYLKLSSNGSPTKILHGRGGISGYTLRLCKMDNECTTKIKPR
human plasma kallikrein, sequence (P03952 391-638 limits assumed): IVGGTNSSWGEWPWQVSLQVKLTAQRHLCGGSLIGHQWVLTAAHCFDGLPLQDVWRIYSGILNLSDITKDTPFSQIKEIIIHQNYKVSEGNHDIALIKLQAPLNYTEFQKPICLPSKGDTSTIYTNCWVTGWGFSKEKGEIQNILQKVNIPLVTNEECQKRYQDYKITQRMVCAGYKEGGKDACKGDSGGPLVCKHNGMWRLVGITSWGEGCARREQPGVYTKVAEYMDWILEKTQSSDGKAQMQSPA
human plasma kallikrein, sequence (P03952 20-390 partner limits assumed): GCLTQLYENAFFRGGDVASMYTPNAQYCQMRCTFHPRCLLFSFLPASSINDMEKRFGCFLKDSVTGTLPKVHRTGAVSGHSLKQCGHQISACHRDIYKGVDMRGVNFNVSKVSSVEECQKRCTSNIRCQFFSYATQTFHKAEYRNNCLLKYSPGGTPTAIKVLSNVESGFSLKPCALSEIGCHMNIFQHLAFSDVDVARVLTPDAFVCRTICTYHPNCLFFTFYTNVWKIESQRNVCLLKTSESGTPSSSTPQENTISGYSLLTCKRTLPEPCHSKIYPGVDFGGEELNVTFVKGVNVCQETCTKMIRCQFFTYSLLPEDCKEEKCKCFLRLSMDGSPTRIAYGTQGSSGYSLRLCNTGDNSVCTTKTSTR

IC50 [1] | IC50 [2] | SMILES
> 50 nM | 109 nM | CC(C)(O)c1nc2cc(NC(=O)[C@@H]3CCC4CC(c5c(-n6cnnn6)ccc(Cl)c5F)=CC(=O)N43)ccc2s1 (mixture of isomers) [compound 90]
> 50 nM | 115 nM | CC(O)c1nc2cc(NC(=O)[C@@H]3CCC4CC(c5c(-n6cnnn6)ccc(Cl)c5F)=CC(=O)N43)ccc2s1 (mixture of isomers) [compound 91]
33.5 nM | 50.4 nM | CC(O)c1nc2cc(NC(=O)[C@@H]3CCC4CC(c5c(-n6cnnn6)ccc(Cl)c5F)=CC(=O)N43)ccc2s1 (mixture of isomers) [compound 92]
> 50 nM | 190 nM | CCOCCOc1ccc2cc(NC(=O)[C@@H]3CCC4CC(c5c(-n6cc(C(F)(F)F)nn6)ccc(Cl)c5F)=CC(=O)N43)ccc2n1 (mixture of isomers) [compound 107]
> 100 nM | – | CO[C@H]1C[C@@H](C(=O)Nc2ccc3nn(C)cc3c2)N2C(=O)C=C(c3c(-n4cnnn4)ccc(Cl)c3F)CC12 (mixture of isomers) [compound 110]
26.9 nM | 106 nM | COCCn1ncc2cc(NC(=O)[C@@H]3CCC4CC(c5c(-n6cnnn6)ccc(Cl)c5F)=CC(=O)N43)ccc21 (mixture of isomers) [ID No. 4, (3S)-7-(3-chloro-2-fluoro-6-(1H-tetrazol-1-yl)phenyl)-N-(1-(2-methoxyethyl)-1H-indazol-5-yl)-5-oxo-1,2,3,5,8,8a-hexahydroindolizine-3-carboxamide]
3.2 nM | 60.4 nM | O=C(O)c1[nH]c2ccc(NC(=O)[C@@H]3CCC4CC(c5c(-n6cnnn6)ccc(Cl)c5F)=CC(=O)N43)cc2c1F (mixture of isomers) [ID No. 26, 5-[[(3S)-7-[3-Chloro-2-fluoro-6-(tetrazol-1-yl)phenyl]-5-oxo-2,3,8,8a-tetrahydro-1H-indolizine-3-carbonyl]amino]-3-fluoro-1H-indole-2-carboxylic acid]
136 nM | – | CO[C@H]1C[C@@H](C(=O)Nc2ccc3n[nH]cc3c2)N2C(=O)C=C(c3c(-n4cnnn4)ccc(Cl)c3F)CC12 (mixture of isomers) [ID No. 27, (1S,3S)-7-[3-Chloro-2-fluoro-6-(tetrazol-1-yl)phenyl]-N-(2H-indazol-5-yl)-1-methoxy-5-oxo-2,3,8,8a-tetrahydro-1H-indolizine-3-carboxamide]
~189 nM | 431 nM | CO[C@H]1C[C@@H](C(=O)Nc2ccc3nccnc3c2)N2C(=O)C=C(c3c(-n4cnnn4)ccc(Cl)c3F)CC12 (mixture of isomers) [ID No. 28, (1S,3S)-7-[3-Chloro-2-fluoro-6-(tetrazol-1-yl)phenyl]-1-methoxy-5-oxo-N-quinoxalin-6-yl-2,3,8,8a-tetrahydro-1H-indolizine-3-carboxamide]
180 nM | 611 nM | CO[C@H]1C[C@@H](C(=O)Nc2ccc3ncccc3c2)N2C(=O)C=C(c3c(-n4cnnn4)ccc(Cl)c3F)CC12 (mixture of isomers) [ID No. 29, (1S,3S)-7-[3-Chloro-2-fluoro-6-(tetrazol-1-yl)phenyl]-1-methoxy-5-oxo-N-(6-quinolyl)-2,3,8,8a-tetrahydro-1H-indolizine-3-carboxamide]
30.8 nM | – | O=C(Nc1ccc(-c2nc(=O)o[nH]2)cc1)[C@@H]1CCC2CC(c3c(OCC(F)(F)F)ccc(Cl)c3F)=CC(=O)N21 (mixture of isomers) [ID No. 40, (3S)-7-(3-Chloro-2-fluoro-6-(2,2,2-trifluoroethoxy)phenyl)-5-oxo-N-(4-(5-oxo-2,5-dihydro-1,2,4-oxadiazol-3-yl)phenyl)-1,2,3,5,8,8a-hexahydroindolizine-3-carboxamide]
183 nM | – | Cn1oc(=O)nc1-c1ccc(NC(=O)[C@@H]2CCC3CC(c4c(-n5cnnn5)ccc(Cl)c4F)=CC(=O)N32)cc1 (mixture of isomers) [ID No. 67, (3S)-7-[3-Chloro-2-fluoro-6-(tetrazol-1-yl)phenyl]-N-[4-(2-methyl-5-oxo-1,2,4-oxadiazol-3-yl)phenyl]-5-oxo-2,3,8,8a-tetrahydro-1H-indolizine-3-carboxamide]
58.4 nM | – | Cn1ccnc1-c1ccc(NC(=O)[C@@H]2CCC3CC(c4c(-n5cnnn5)ccc(Cl)c4F)=CC(=O)N32)cc1 (mixture of isomers) [ID No. 78, (3S)-7-[3-Chloro-2-fluoro-6-(tetrazol-1-yl)phenyl]-N-[4-(1-methylimidazol-2-yl)phenyl]-5-oxo-2,3,8,8a-tetrahydro-1H-indolizine-3-carboxamide]
639 nM | – | C[C@@H]1C[C@@H](C(=O)Nc2ccc3nccnc3c2)N2C(=O)C=C(c3c(-n4cnnn4)ccc(Cl)c3F)C[C@H]12 (single isomer, unassigned) [ID No. 81, (1R*,3S,8aR*)-7-[3-Chloro-2-fluoro-6-(tetrazol-1-yl)phenyl]-1-methyl-5-oxo-N-quinoxalin-6-yl-2,3,8,8a-tetrahydro-1H-indolizine-3-carboxamide]
> 50 nM | – | COCCNC(=O)c1ccc(NC(=O)[C@@H]2CCC3CC(c4c(-n5cnnn5)ccc(Cl)c4F)=CC(=O)N32)cc1F (single isomer, unassigned) [ID No. 94, (3S,8aS*)-7-(3-chloro-2-fluoro-6-(1H-tetrazol-1-yl)phenyl)-N-(3-fluoro-4-((2-methoxyethyl)carbamoyl)phenyl)-5-oxo-1,2,3,5,8,8a-hexahydroindolizine-3-carboxamide]
> 50 nM | – | O=C(O)C1CCc2ccc(NC(=O)[C@@H]3CC[C@@H]4CC(c5c(-n6cc(C(F)(F)F)nn6)ccc(Cl)c5F)=CC(=O)N43)cc21 (stereo partly drawn) [compound 104]
